Peptide text beside a SMILES is read from it.
How the values were obtained:
[1] = system: HLF cells; assay: Apoptosis by annexin V-FITC staining, flow cytometry; format: cell-based; conditions: calpain inhibitor 2 at 10 μM
Protocol: (§1) P53 was administered to the cells by the use of the replication defective adenoviral vector ACN53 described in Wills, et al., supra. The effect of varying concentrations of rAd-p53 (from […] to 2×10^9 rAd-p53 particles/ml of solution) was investigated in combination with CI-1 in a range of 5–20 μm. The effects of individual and combination treatment was determined in the in DLD1, RKO, HLF and SK-Hep1 cells was investigated in substantial accordance with the teaching of Examples 2 and 3 herein. The percentage of apoptotic cells was determined at 17 hours post treatment (with the exception of U87 cells (24 hours) and HeLa cells (68 hours)) with annexin V positive staining. The results are presented in graphical format in FIG. 3 of the attached drawings. In brief, the results were as follows:
To quantitate the increased efficacy of rAd-p53 induced cell killing in tumor cell lines in response to CI-1 treatment, HLF cells were infected with increasing concentrations of rAd-p53 with or without 10 μM CI-1, and assayed for percentage apoptotic cells by annexin V-FITC staining 42 hours post-treatment in substantial accordance with the teaching of Example 3 herein. […] No increase in annexin V-FITC positive cells was detected at 1×10^5 particles/ml rAd-p53 with or without 10 μM CI-1. At 1×10^6 particles/ml rAd-p53, the percentage apoptotic cells without CI-1 was 14%, while 40% of annexin V positive cells was detected when cell were treated with 10 μM CI-1. At a concentration of 1×10^7 ACN53 particles/ml, 17% annexin V positive without and 63% with 10 μM CI-1 was detected. At 1×10^8 particles/ml, 52% were annexin V positive without and 70% positive with inhibitor treatment. At a dose of 1×10^9 particles of rAd-p53, however, the percentage annexin V positive was about the same for both 77% without and 74% with 10 μM CI-1. […] concentration of rAd-p53 was sufficient to induce approximately 50% cell death, while only a 1×10^7 particle/ml concentration rAd-p53 was needed to induce approximately the same percentage of cell death when 10 μM CI-1 as added.
(§2) The effect of an inhibitor of μ-calpains, CI-1 (N-acetyl-leu-leu-norleucinal), was investigated for its ability to enhance p53 mediated apoptosis in tumor cell lines having p53+ and p53− status listed in Table1. Each cell line was treated with 5–50 μM CI-1 for 17–26 hours. To detect a G0/G1 block, bromodeoxyuridine (BrdU) incorporation followed by flow cytometric analysis was done 17 hours post-treatment as described in Example 4 herein. […] The results of these experiments are presented in FIGS. 1 and 2 of the attached drawings. In FIG. 1, each point on the graph represents percentage annexin V positive after background percentage (DMF alone) was subtracted.
(§3) An aliquot containing approximately 1×10^6 cells of each type was placed in a T-225 flask. The effect of varying concentrations of rAd-p53 (from 1×10^7 to 2×10^9ACN53 particles/ml of solution) was investigated in combination with CI-1 in a range of 5–20 μM. In each instance, the cell line was infected with 1×10^7–1×10^9 particles/ml of cell culture with the ACN53 using the empty cassette virus (ZZCB) as a control. In each instance, the cells were exposed to the virus for a period of one hour. At the end of this time, the virus was washed off the from the cells and fresh media containing an appropriate concentration of CI-1 was added.
HLF cells were infected at increasing log concentrations of rAd-p53 ranging from 1×10^5 to 1×10^9 for one hour at which time virus was washed off and replaced with fresh media (viral infection with no treatment) or with 10 μM calpain inhibitor 1. Cells were assayed for apoptosis by annexin V-FITC staining at 24 and 42 hours post-infection.
CI-1 was obtained from Boehringer-Mannheim Biochemicals (Indianapolis, Ind.). The CI-1 containing media was prepared as follows. CI-1 was diluted in dimethylformamide (DMF) to a concentration of 33.3 μM/μl. […]

[2] = system: SK-Hep1 cells; assay: as above; format: cell-based; conditions: calpain inhibitor 2 at 20 μM; endogenous wildtype p53
Protocol: as §1, §2, §3
CI-1 was obtained from Boehringer-Mannheim Biochemicals (Indianapolis, Ind.). The CI-1 containing media was prepared as follows. CI-1 was diluted in dimethylformamide (DMF) to a concentration of 33.3 μM/μl. The CI-1 solution in DMF was added to achieve a final concentration in the media of 5 or 10 μM final concentration of CI-1. An equivalent volume of DMF alone was added to the control cells. Calpain inhibitor 2, N-acetyl-leu—leu-methioninal (Boehringer Mannheim) was added to cell lines at 5–50 μM final concentration with or without rAd-p53 for 26 hours.
At a time of 17 (or 26 hours) post infection, the percentage of cells undergoing apoptosis was determined by convential apoptotic markers. Apoptosis was monitored visually by observing blebbed nuclei characteristic of apoptosis, by propidium iodide staining (using propidium iodide commercially available from Molecular Probes, Inc.) followed by flow cytometric analysis to look for subgenomic populations of cells, and by labeling cells with annexin V-FITC (commercially available from Boehringer Mannheim) in substantial accordance with the instructions provided by the manufacturer, followed by flow cytometric analysis on a FACScan Flow Cytometer (commercially available from Becton Dickinson).

SMILES: CSCC[C@@H](C=O)NC(=O)[C@H](CC(C)C)NC(=O)[C@H](CC(C)C)NC(C)=O [CI-2, N-acetyl-leu—leu-methioninal] (Ac-Leu-Leu-Met-aldehyde)
- effect on the induction of apoptosis in combination with rAd-p53 [1]: no significant effect
- increase in annexin V-FITC positive cells [2]: no significant increase

— US7001770B1, “Calpain inhibitors and their applications” (priority 1998, dated 2006)
